Assay results taken from patent US20090269795A1, “Mutant alpha4betadelta GABAA receptor and methods of treating anxiety or irritability” (priority 2007, published 2009).

Experiments:
[1] = tested on: α4 and δ GABAA receptor subunits; assay: Western blot of hippocampal α4 and δ subunit expression; type: in vivo, mouse; conditions: replacement THP 10 mg kg−1 day−1 for 3 days
Source text: Animal subjects. Prepubertal and pubertal female C57BL6 mice (3½-6 weeks old, +/+ and δ^−/−1) were housed in a reverse light:dark cycle (12:12). Both sets of mice were originally supplied by G. Homanics (Univ. of Pittsburgh), and were bred on site, with +/+ mice supplemented from Jackson Laboratories (Bar Harbor, Me.). Initially, age-matched+/+littermates of the δ^−/−were used as controls, but because they were indistinguishable from C57BL6, data from both groups were pooled. Genotyping of the tails verified that mice were homozygous δ^−/−. […] The onset of puberty was determined by vaginal opening, and pubertal mice tested on the day of first metestrus, identified by vaginal morphology and verification of first estrus the previous day. […] Individual stages of puberty were not distinguished, and pre-pubertal mice were used before any visible signs of pubertal development, assessed by development of the peri-vaginal area. […]
Western blot: Procedures were performed on hippocampal membranes at protein concentrations in the linear range (5-10 μg), as we have described^7. Following preparation of crude hippocampal membranes, individual protein concentrations were assessed using the Bradford assay. […] (The δ antibody was a generous gift from W. Sieghart.) Optical densities were quantified with One-Dscan software from a scanned image. […]

[2] = tested on: CA1 hippocampal pyramidal cells; assay: Tonic GABAergic current, whole cell patch clamp, hippocampal slice; type: cell-based, mouse
Method: In whole cell recordings of the tonic current, the bath contained 2 mM kynurenic acid and 5-10 mM TEA to pharmacologically isolate the GABAergic current, and in some cases, 200 nM gabazine (6-imino-3-(4-methyoxyphenyl)-1 (6H)-pyridazinebutanoic acid hydrobromide) to selectively block the synaptic GABAergic currents^22. […] In some cases, 50 μM L-655,708 was added to the bath solution to block α5-containing GABAA receptors^23.
Tonic current was recorded as the difference current produced by 120 μM gabazine, which blocks all GABAA receptor, before and after 30 nM THP^24. Current was also recorded in response to 2 s 10 mV steps in the holding potential, and current-voltage curves generated to the steady-state current. Because fast-inactivating conductances would not be excluded in a voltage ramp, stable steady-state current responses were used instead to construct the current-voltage (IV) curves. Input resistance (Rm) was calculated from the current response to voltage steps from −60 to −40 mV using Ohm's Law. The reversal potential was determined by the […] of the IV curve (−90 to −10 mV). The gabazine-sensitive slope conductance was assessed as the slope of the linear portion of outward current plot recorded before and after THP after subtraction of the gabazine-generated current (in the presence of L-655,708 to block α5-GABAA receptors). Only data with a stable baseline and pipet access resistance <10 MΩ were included in the analysis.

Q: Which results are given for `CC(=O)[C@H]1CC[C@H]2[C@@H]3CC[C@H]4C[C@H](O)CC[C@]4(C)[C@H]3CC[C@]12C` [THP, 3α-OH-5α[β]-pregnan-20-one]?
A: effect on increased expression of α4 and δ subunits at onset of puberty [1]: prevented; reduction of outward tonic current ([2]; 30 nM THP, pubertal mice, low internal Cl−): 48±6%; effect on outward tonic current ([2]; before puberty): increased the outward tonic current; effect on tonic GABAergic current, inward ([2]; pubertal, cell loaded with Cl− to produce inward current): increased the tonic GABAergic current; effect on outward tonic current ([2]; δ−/− mouse after puberty): increased the outward tonic current
